Measurements: ChEMBL document CHEMBL3638714, “Fused heterocyclic derivative and pharmaceutical use thereof” (2015)

molecular target: Xanthine dehydrogenase/oxidase (Bos taurus, UniProt P80457); test: Inhibition Assay: Xanthine oxidase (from bovine milk, Sigma) was prepared with phosphate-buffered saline (PBS) at 0.02 units/mL, and then the solution was added to 96 well plates at 50 μL/well. In addition, test compounds diluted with PBS were added at 50 μL/well. Xanthine (manufactured by Wako pure chemical) at 200 μM prepared with PBS was added at 100 μL/well, and the reaction was conducted for 10 minutes at room temperature. Absorbance at 290 nm was measured by using a microplate reader SpectraMax Plus 384 (manufactured by Molecular device).
Sequence (P80457 whole entry): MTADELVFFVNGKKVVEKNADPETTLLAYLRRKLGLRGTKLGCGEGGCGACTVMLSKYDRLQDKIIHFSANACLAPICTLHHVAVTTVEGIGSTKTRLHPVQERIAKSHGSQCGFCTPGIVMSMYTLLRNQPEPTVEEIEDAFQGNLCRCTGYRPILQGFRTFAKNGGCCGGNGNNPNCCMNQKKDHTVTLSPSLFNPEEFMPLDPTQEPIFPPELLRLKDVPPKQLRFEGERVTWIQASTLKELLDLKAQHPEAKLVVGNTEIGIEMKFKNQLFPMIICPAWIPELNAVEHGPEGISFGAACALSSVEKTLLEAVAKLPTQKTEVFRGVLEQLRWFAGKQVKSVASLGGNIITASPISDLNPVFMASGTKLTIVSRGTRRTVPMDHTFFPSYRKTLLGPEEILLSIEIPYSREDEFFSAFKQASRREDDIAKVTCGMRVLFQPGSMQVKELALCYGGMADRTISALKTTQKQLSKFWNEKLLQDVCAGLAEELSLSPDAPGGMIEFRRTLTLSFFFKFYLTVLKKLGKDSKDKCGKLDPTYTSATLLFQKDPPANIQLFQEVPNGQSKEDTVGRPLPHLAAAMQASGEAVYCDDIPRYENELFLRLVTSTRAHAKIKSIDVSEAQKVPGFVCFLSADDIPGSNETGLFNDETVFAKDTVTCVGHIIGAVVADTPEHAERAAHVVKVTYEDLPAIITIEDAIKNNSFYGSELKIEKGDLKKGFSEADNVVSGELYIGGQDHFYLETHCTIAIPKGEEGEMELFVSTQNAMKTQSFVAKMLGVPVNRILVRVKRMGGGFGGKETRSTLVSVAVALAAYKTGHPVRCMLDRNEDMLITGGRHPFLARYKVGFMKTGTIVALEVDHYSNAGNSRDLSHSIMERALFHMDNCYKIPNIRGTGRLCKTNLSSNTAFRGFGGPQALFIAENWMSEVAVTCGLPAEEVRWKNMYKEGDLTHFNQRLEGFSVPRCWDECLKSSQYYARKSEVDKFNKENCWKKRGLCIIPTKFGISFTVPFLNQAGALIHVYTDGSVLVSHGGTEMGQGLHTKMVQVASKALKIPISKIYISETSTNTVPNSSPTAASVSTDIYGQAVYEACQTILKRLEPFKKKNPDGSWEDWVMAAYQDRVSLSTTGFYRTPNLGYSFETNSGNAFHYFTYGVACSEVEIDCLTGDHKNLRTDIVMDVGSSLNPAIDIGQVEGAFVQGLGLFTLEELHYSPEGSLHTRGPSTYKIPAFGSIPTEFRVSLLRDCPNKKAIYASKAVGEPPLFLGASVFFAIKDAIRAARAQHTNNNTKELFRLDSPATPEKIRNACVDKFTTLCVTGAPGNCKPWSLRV

IC50	SMILES
10 nM	[C-]#[N+]c1cn(-c2ccc(C(=O)O)c(O)c2)c2cscc12
14 nM	[C-]#[N+]c1cn(-c2ccc(C(=O)O)c(O)c2)c2sc(Br)cc12
13 nM	[C-]#[N+]c1cn(-c2ccc(C(=O)O)c(O)c2)c2sccc12
